Assay results from a melting point compilation (Tetko et al.; mined from patent text by program, amines drawn as free bases though some values may be those of a salt).

Row | SMILES | melting point [°C]
1 | CC(=O)OC1(N=NC2(OC(C)=O)CC(C)CC(C)(C)C2)CC(C)CC(C)(C)C1 (configuration not stated) | 111 to 115
2 | COc1cc(=O)c(-c2ccnn2-c2ccccc2)nn1-c1cccc(C(F)(F)F)c1 | 139 to 141
3 | NC(Cn1cncn1)(Cn1cncn1)c1ccc(Cl)cc1Cl | 135 to 136
4 | Nc1ccc2c(c1)C(=O)CC21CCCC1 | 125
5 | COC(=O)c1ccc(OCCNC(=O)C2Cc3ccccc3N2S(=O)(=O)c2ccc(-c3cccc(C(F)(F)F)c3)cc2)cc1Cl (configuration not stated) | 63 to 67
6 | COc1cc2c(cc1Br)c1ccccc1n2CCC(C)CCCC(C)C (configuration not stated) | 55
7 | Cc1ccc(S(=O)(=O)OCC2(CO)OC(n3ccc(=O)[nH]c3=O)C(O)C2OCc2ccccc2)cc1 (configuration not stated) | 195 to 197
8 | CCOC(=O)C1Cc2c([nH]c3ccccc23)CN1C(=S)SCc1ccc(Cl)cc1 (configuration not stated) | 195 to 197
9 | CCOc1ccc(-c2nc(C=O)cs2)cc1OCC | 84 to 87
10 | O=C(Nc1ccc(C(F)(F)F)cc1)N1CC2CSc3cc(Cl)ccc3C2=N1 (configuration not stated) | 188 to 192
11 | O=C(O)CC(Br)c1ccc([N+](=O)[O-])cc1 (configuration not stated) | 166 to 167
12 | Fc1cccc(F)c1-c1ccncc1 | 113 to 114
13 | CC(=O)Nc1ccc(C(=O)N2CC2C#N)c(OC(C)=O)c1 (configuration not stated) | 118 to 120
14 | O=C1CCC(N2Cc3c(OCc4ccc(CN5CCN(c6ccccn6)C(=O)C5)cc4)cccc3C2=O)C(=O)N1 (configuration not stated) | 224 to 226
15 | CN1CCc2c(Cl)csc2C(c2ccccc2)C1 (configuration not stated) | 67
16 | ClCc1nnnn1C1CCCCC1 | 101 to 104
17 | COC(=O)c1c(S(C)(=O)=O)ccc(C(=O)O)c1Cl | 160 to 162
18 | Cc1ccc(-c2nc3ccc(C)cn3c2C(O)C(=O)N(C)C)cc1 (configuration not stated) | 175 to 177
19 | COc1ccc2c(c1)OC(CNCCCOc1cc3ccccc3oc1=O)CO2 (configuration not stated) | 176 to 178
20 | O=C(c1n[nH]c2ccccc12)N1CCCCC1 | 201 to 203
21 | Cn1nc(N)nc1NCCCOc1cccc(CN2CCCCC2)c1 | 94 to 95
22 | N#Cc1ccc(C(=C2CCCC2)c2nc[nH]n2)cc1 | 72
23 | Cc1cccc(-c2nc(CI)c(C)o2)c1 | 32
24 | Cc1cc(S(=O)(=O)N2CCCCC2)c(O)c2c1CCC2=O | 188 to 189

Row | SMILES | melting point [°C]
25 | O=C(CC1CCN(CCc2ccccc2)CC1)c1ccc(F)cc1 | 73 to 74
26 | Cc1c(Cl)cccc1N=c1scc(-c2ccc(Cl)c(S(=O)(=O)N(C)C)c2)n1C | 144 to 146
27 | CC1(C)OC(=O)Nc2c(Br)cc(-c3ccc(F)c(C#N)c3)cc21 | 235 to 236
28 | CC(C)Oc1nc2cc(-n3ccc(=O)cc3)c([N+](=O)[O-])cc2nc1OC(C)C | 217 to 219
29 | CCCCC1(CCCC)Cc2c(O)cccc2C1=O | 114 to 115
30 | C=CC12CCc3cc(O)ccc3C1CCC1(C)C(O)CCC12 (configuration not stated) | 149 to 151
31 | C=CC(=O)c1ccc(O)cc1 | 99 to 103
32 | c1ccc(Cn2cccc2-c2nc(Nc3ccc(-c4ccccc4)cc3)nc(Nc3ccc(-c4ccccc4)cc3)n2)cc1 | 185 to 186
33 | Cc1ccc(S(=O)(=O)OCC(NC(=O)OC(C)(C)C)C(C)C)cc1 (configuration not stated) | 85
34 | CN(C)CC1CN(Cc2ccccc2)c2ccccc2N1C=O (configuration not stated) | 82 to 84
35 | Cc1noc(NS(=O)(=O)c2ccsc2C(=O)Nc2cc3c(cc2C#N)OCO3)c1Cl | 167 to 168
36 | CCOc1cc2c(c3c1OC(C)(C)C3)C(c1ccccc1)=[N+]([O-])C(C)(C)C2 | 125 to 126
37 | O=C1C(Cl)=C(Nc2ccc(S(=O)(=O)Nc3ccccn3)cc2)C(=O)c2ccccc21 | 273 to 275
38 | O=C1OCC(c2ccccc2)N1CC1C2CCC(O2)C1CO (configuration not stated) | 131 to 133
39 | O[C@H](COc1cccc2[nH]ccc12)CN1CC=C(c2c[nH]c3cccc(F)c23)CC1 | 90 to 95
40 | O=c1oc(-c2ccc(NS(=O)(=O)c3ccccc3)cc2)cc(O)c1SCCc1ccccc1 | 89 to 91
41 | Cc1cc(C(N)=O)ccc1O[C@@H]1CCNC[C@H]1O (relative stereo) | 210 to 212
42 | O=c1[nH]c2nc3ccccc3n2c(=O)n1CCc1ccccc1 | 298
43 | Cc1oc(-c2ccccc2)nc1COc1ccc(COc2ncccc2CC(=O)O)cn1 | 147 to 148
44 | CCCCc1nc(Cl)c(COC)n1Cc1ccc(-c2ccccc2NS(=O)(=O)C(F)(F)F)cc1 | 148 to 150
45 | CC(CCCn1c(C)nc2c(N)nc3ccccc3c21)=NO | 264 to 266
46 | COc1cc(-c2nc(N3CCNC(C)C3)c3c(C)c(C#N)sc3n2)cc(OC)c1OC (configuration not stated) | 213 to 215
47 | CCCCS(=O)(=O)ON=C(C#N)c1ccc(OC)cc1 | 71
48 | Cc1c(N)c(C#N)cc(F)c1F | 114 to 116

Row | SMILES | melting point [°C]
49 | CCCCCc1cc(O)c(C2=C(CO)CCC(C)C2)c(O)c1 (configuration not stated) | 109 to 111
50 | O=C(O)c1ccc(Oc2ccc3c(c2)CCN(CCN2CCCC2)C3=O)cc1 | 99 to 100
51 | CCC1(C)CCNC1=O (configuration not stated) | 39 to 40
52 | O=C(NC1CCN(CCCOc2ccc3c4c(c(=O)oc3c2)CCC4)CC1)c1ccc([N+](=O)[O-])cc1 | 212 to 213
53 | CCCn1nc(CC)c(C(=O)O)c1Cc1ccc(-c2ccccc2-c2nnn[nH]2)cc1 | 229
54 | O=[N+]([O-])c1ccc2c(C3CCN(C[C@H](O)COc4cccc5[nH]ccc45)CC3)c[nH]c2c1 | 212 to 214
55 | CC1(C)CC(=C(c2ccc(O)cc2)c2ccc(-c3cccc(CO)c3)cc2)CC(C)(C)C1 | 197 to 198
56 | CC(=O)c1cc2c(Sc3ccc(C)cc3)cncc2s1 | 134 to 138
57 | Cc1cc(O)cc(C)c1N | 190 to 191
58 | COC1(c2cccc(OCc3ccc(-n4cnc(-c5ccccc5)c4)cc3)c2)CCOCC1 | 98 to 100
59 | Cc1sc(C=O)c(C)c1C | 45 to 46
60 | O=C(O)/C=C/c1ccc(OCCC2OCCO2)cc1Oc1ncc(C(F)(F)F)cc1Cl | 157 to 158
61 | CC(C)(OCc1nn(Cc2ccccc2)c2ccc(Br)cc12)C(=O)O | 168 to 170
62 | N#Cc1cc(-c2ccoc2)c2ccc(COc3cc(F)cc(-c4ccoc4)c3)cc2n1 | 156 to 159
63 | COc1cccc(/C=C/C(=O)Nc2cccc(NC(=N)c3ccccc3)c2)c1 | 148 to 149
64 | CN(c1cccc2cc(C3=NCC(C)(CN4CCNCC4)S3)[nH]c12)S(=O)(=O)c1cccs1 (configuration not stated) | 178 to 180
65 | Cc1ncoc1C(C)(O)c1ccccc1C(F)(F)F (configuration not stated) | 108 to 109
66 | Cc1ccnc(-c2cncc(OC3SCC(O)C(O)C3O)c2)c1 (configuration not stated) | 166
67 | CCCCCCCCN(SN(C(=O)NC(=O)c1ccccc1[N+](=O)[O-])c1ccc(Oc2ncc(Br)cn2)c(Cl)c1)C(=O)OC | 51 to 54
68 | CCOC(=O)CC(NC(=O)c1cccc(Cl)c1)C(=O)c1ccsc1 (configuration not stated) | 63 to 65
69 | CC(C)(CCc1ccc(Cl)c(Cl)c1)CC(=O)O | 106 to 108
70 | CN(C)c1ncc(-c2cccc(Nc3ccc(-c4ccco4)cc3[N+](=O)[O-])c2)cn1 | 160 to 161
71 | Nc1nc2ccccc2c2c1nc(CCO)n2CC1(O)CCC1 | 132 to 137
72 | Cc1ccccc1NC(=O)Nc1ccc(CC(=O)O)cc1 | 205 to 206
